# Data taken from US8445480B2, “CETP inhibitors derived from benzoxazole arylamides” (Merck Sharp & Dohme Corp., priority 2007, dated 2013).
# Molecular target: T1, recombinant human CETP (Homo sapiens, UniProt P11597)
# T1 construct: made in house; host or cells: CHO cells
# T1 sequence (P11597 18-493): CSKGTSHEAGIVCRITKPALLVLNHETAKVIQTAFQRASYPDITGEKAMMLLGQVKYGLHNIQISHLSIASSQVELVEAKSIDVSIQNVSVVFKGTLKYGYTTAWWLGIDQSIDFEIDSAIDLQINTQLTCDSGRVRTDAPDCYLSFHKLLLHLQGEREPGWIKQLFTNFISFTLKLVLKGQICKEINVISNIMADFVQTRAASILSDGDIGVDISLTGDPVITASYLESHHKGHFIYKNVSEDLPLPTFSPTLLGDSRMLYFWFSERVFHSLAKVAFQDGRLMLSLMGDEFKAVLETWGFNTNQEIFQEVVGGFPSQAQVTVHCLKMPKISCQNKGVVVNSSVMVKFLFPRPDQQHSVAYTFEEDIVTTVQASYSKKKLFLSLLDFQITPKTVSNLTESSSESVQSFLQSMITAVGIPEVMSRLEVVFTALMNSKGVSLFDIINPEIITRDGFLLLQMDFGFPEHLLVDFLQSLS
# Assay: CETP assay, in vitro continuous fluorescence assay of CE transfer (BODIPY-CE donor particles)
# Type: biochemical
# Conditions: CE transfer reaction, 3% human serum, 25° C.; read-out: IC50 value as measured for the CE transfer reaction
# Procedure: An in vitro continuous assay for determining IC50's to identify compounds that are CETP inhibitors was performed based on a modification of the method described by Epps et al. employing BODIPY®-CE as the cholesteryl ester lipid donor and BODIPY®-TG as the triglyceride lipid donor. See Epps et al. (1995) Method for measuring the activities of cholesteryl ester transfer protein (lipid transfer protein), Chem. Phys. Lipids. 77, 51-63.
# Particles used in the assay were created from the following materials by probe sonication essentially as described by Epps et al. Synthetic cholesteryl ester (CE) donor HDL particles contained DOPC (Dioleoyl Phosphatidyl Choline), BODIPY®-CE (Molecular Probes C-3927), triolein (a triglyceride), dabcyl dicetylamide, (a non-diffusible quencher molecule to reduce background fluorescence) and apoHDL. Synthetic triglyceride (TG) donor HDL particles contained DOPC, BODIPY®-TG, and apoHDL. […] Particle concentrations were expressed in terms of protein concentration as determined by BCA assay (Pierce, USA). […]
# Assays were performed in Dynex Microfluor 2 U-bottom black 96-well plates (Cat #7205). […] CE transfer reactions were performed as follows: final concentrations of materials were: 2.5 ng/μCE donor particles, 7.5 ng/μL acceptor particles (each expressed by protein content), 1×CETP buffer, 14-30 nM recombinant human CETP (expressed in CHO cells and partially purified), and up to 2% DMSO when testing compounds; reactions were followed in a fluorescence plate reader (Molecular Devices Spectramax GeminiXS) set for a 45 minute kinetic run at 25° C. which read the samples every 45 sec at Ex=480 nm, Em=511 nm, with a cutoff filter at 495 nm, photomultiplier tube setting of medium, calibration on, and 6 reads/well. […] TG transfer was measured at an excitation wavelength of 538 nm while reading emission at 568 nm every 45 sec for 45 min at 37° C. with a cutoff filter at 550 nm.
# Data were evaluated by obtaining an initial rate, expressed in relative fluorescence units per second, for the pseudolinear portion of the curve, often 0-500 or 1000 sec. […]
row,IC50 [nM],SMILES
1,13 to 60,"CC(C)c1cc(C#N)cc2nc(-c3ccc(C(=O)NCC4CCN(c5nccc(C(F)(F)F)n5)CC4)cc3)oc12 [Example 1, 4-(5-Cyano-7-isopropyl-1,3-benzoxazol-2-yl)-N-({1-[4-(trifluoromethyl)pyrimidin-2-yl]piperidin-4-yl}methyl)benzamide]"
2,13 to 60,CC(C)c1cc(C#N)cc2nc(-c3ccc(C(=O)NCC4CCN(c5ccc(C(F)(F)F)cn5)CC4)cc3)oc12 [Example 3]
3,13 to 60,CC(C)c1cc(C#N)cc2nc(-c3ccc(C(=O)NCC4CCN(Cc5cccc(C(F)(F)F)c5)CC4)cc3)oc12 [Example 58]
